Series [1] in a line: Hygroscopicity determination (vapor sorption). It counts as physicochemical. The conditions noted are these: room temperature (25° C.). The procedure: Hygroscopicity Determination
The weight change of a test sample at room temperature (25° C.) and at 80% relative humidity (RH) was investigated by recording adsorption-desorption isotherms using a symmetric vapor-sorption analyser SGA-100 (VTI Corporation) using different methods, the main features being: a single sorption/desorption cycle from 0 to 90% RH in 10% RH steps with a dm/dt trigger value of 0.002%, (dm/dt=change in mass with time—when the balance stability is within this value the next step is automatically started, however, if those conditions are not achieved there is a default maximum time for each step of 6 hours). Approximately 2 to 10 mg of the test sample was placed in a sample holder and exposed to different relative humidities.

Series [2] is described as follows: Estimated solubility of the salt in organic solvents. It counts as physicochemical. The conditions noted are these: organic solvent or mixture. The procedure: (a) Form B was prepared by dissolving, in a vial, 20% w of a sample of the furoate salt prepared by the method of Example 1(b) (Form A) in a solvent such as ethanol (16 mg/ml) or 2-butanol (8 mg/ml). The figures in brackets indicate the estimated solubility of the salt in these solvents. The vial was then sealed and the suspension was homogenised at ambient temperature (20° C.) using a magnet. Stirring and temperature were maintained for a period of at least 7 days after which time a sample of the material obtained was dried and tested by XRPD. XRPD confirmed that there had been complete transformation of Form A to Form B.

Another series deals with T1, human CCR1 (Homo sapiens, UniProt P32246).
T1 construct: expressed in transfected cells; membrane preparation
T1 sequence (P32246 1-355): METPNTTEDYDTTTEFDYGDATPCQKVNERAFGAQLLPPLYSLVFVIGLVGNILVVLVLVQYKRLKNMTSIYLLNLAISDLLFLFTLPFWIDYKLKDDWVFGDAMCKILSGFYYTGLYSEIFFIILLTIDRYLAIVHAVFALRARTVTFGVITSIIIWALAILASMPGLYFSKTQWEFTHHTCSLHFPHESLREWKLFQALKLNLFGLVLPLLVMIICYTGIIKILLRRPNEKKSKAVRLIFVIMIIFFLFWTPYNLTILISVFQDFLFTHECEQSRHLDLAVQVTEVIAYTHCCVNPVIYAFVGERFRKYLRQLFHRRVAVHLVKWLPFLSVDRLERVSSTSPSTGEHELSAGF
Description: Human CCR1 binding assay. The conditions noted are these: HEK-CCR1 membranes, displacement of 33 pM [125I] MIP-1α.

Data on 2 molecules can be found in US20080280951A1, “Salt Il” (ASTRAZENECA AB, priority 2005, published 2008).

Read-outs that look alike come from different tables or passages of the source. Bounds are passed on as bounds.

Description for human CCR1: HEK293 cells, from ECACC, stably expressing recombinant human CCR1 (HEK-CCR1) were used to prepare cell membranes containing CCR1. The membranes were stored at −70° C. The concentration of membranes of each batch was adjusted to 10% specific binding of 33 pM [^125I] MIP-1α.
100 μL of HEK-CCR1 membranes diluted in assay buffer pH 7.4 (137 mM NaCl (Merck, Cat No 1.06404), 5.7 mM Glucose (Sigma, Cat No G5400), 2.7 mM KCl (Sigma, Cat No P-9333), 0.36 mM NaH2PO4×H2O (Merck, Cat No 1.06346), 10 mM HEPES (Sigma, Cat No H3375), 0.1% (w/v) Gelatine (Sigma, Cat No G2625)) with the addition of 17500 units/L Bacitracin (Sigma, Cat No B 1025) were added to each well of the 96 well filter plate (0.45 μm opaque Millipore cat no MHVB N4550). […] 12 μl assay buffer with 10% DMSO was added to certain wells (without compound) to detect maximal binding (B0).
12 μL [^125I] MIP-1α, diluted in assay buffer to a final concentration in the wells of 33 pM, was added to all wells. The plates with lid were then incubated for 1.5 hrs at room temperature. After incubation the wells were emptied by vacuum filtration (MultiScreen Resist Vacuum Manifold system, Millipore) and washed once with 200 μl assay buffer. After the wash, all wells received an addition of 50 μL of scintillation fluid (OptiPhase “Supermix”, Wallac Oy, Turko, Finland). Bound [^125I] MIP-1α was measured using a Wallac Trilux 1450 MicroBeta counter. […]

One may read the solubility as the dissolved amount per volume that the medium holds. For the molecule `CC(=O)Nc1ccc(O)cc1OC[C@@](C)(O)CNC1CCN(Cc2ccc(Cl)cc2)CC1` [Form A, N-{2-[((2S)-3-{[1-(4-chlorobenzyl)piperidin-4-yl]amino}-2-hydroxy-2-methylpropyl)oxy]-4-hydroxyphenyl}acetamide furoate], in series [1], the “Water Uptake (% w/w) at 80% RH” value is reported as less than 0.8 % w/w. Also, the solubility in series [2] (solvent 2-butanol, read-out: estimated solubility of the salt in 2-butanol) was 8 mg/mL; in series [2] (solvent ethanol, read-out: estimated solubility of the salt in ethanol), 16 mg/mL.
In general, IC50 refers to the concentration needed to halve the response being measured. Read a low IC50 as inhibition by little substance. Consider `CC(=O)Nc1ccc(O)cc1OC[C@@](C)(O)CNC1CCN(Cc2ccc(Cl)cc2)CC1` [N-{2-[((2S)-3-{[1-(4-chlorobenzyl)piperidin-4-yl]amino}-2-hydroxy-2-methylpropyl)oxy]-4-hydroxyphenyl}acetamide ditrifluoroacetate], for which, on human CCR1, the IC50 was less than 50 nM.
